Test results published in ChEMBL document CHEMBL1131844, “Substituted indoles as potent and orally active 5-lipoxygenase activating protein (FLAP) inhibitors” (Bioorg Med Chem Lett, 1999).
pIC50: −log10 of the molar value. Values belong to the compound of their own block, whether it stands above or below them.

Tests used:
[1] = target: T1, Arachidonate 5-lipoxygenase-activating protein (Homo sapiens, UniProt P20292); test: Measuring the affinity of leukotriene synthesis inhibitor for 5-lipoxygenase activating protein by using [125I]L-691831 as radioligand.
T1 sequence (P20292 whole entry): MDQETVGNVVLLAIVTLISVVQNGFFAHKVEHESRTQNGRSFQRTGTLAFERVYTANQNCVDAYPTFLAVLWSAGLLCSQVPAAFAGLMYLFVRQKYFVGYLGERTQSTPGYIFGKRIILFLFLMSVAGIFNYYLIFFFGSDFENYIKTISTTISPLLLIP

[2] = species: Homo sapiens; test: In vitro inhibition of LTB4 biosynthesis in Ca++ ionophore activated human polymorphonuclear (HPMN) leukocytes.; assay type: functional
[3] = species: Homo sapiens; test: The drug dependent inhibition of LTB4 biosynthesis in human whole blood (HWB) activated with the ionophore A-23187; assay type: functional, organism-based
[4] = test system: Rattus norvegicus; test: Compound was evaluated in vivo for its functional activity(in percent) in a hyperreactive rat model of dyspnea; set-up: concentration or dose not given beside the values
[5] = test system: Rattus norvegicus; test: In vivo inhibitory activity against LTB4 biosynthesis by rat pleurisy model (3h pre treatment time periods); assay type: functional
[6] = Bioavailability in rat; assay type: ADME, organism-based; details: in vivo
[7] = plasma level at 2 hr after administration of the compound; assay type: ADME, organism-based; details: rat
[8] = test system: Rattus norvegicus; test: In vivo inhibitory activity against LTB4 biosynthesis by rat pleurisy model (1 pre treatment time periods); assay type: functional
[9] = test system: Canis familiaris; test: Inhibition of ex vivo urinary leukotriene E4 (LTE4) excretion from A-23,187-challenged dog after intravenous infusion of 2.5 ug/kg/min; assay type: functional; details: Canis lupus familiaris, Urine
[10] = Plasma level at 2 hr after administration of the compound; assay type: ADME, organism-based; details: rat
[11] = test system: Rattus norvegicus; test: In vivo inhibitory activity against LTB4 biosynthesis by rat pleurisy model (6 pre treatment time periods); assay type: functional
[12] = test system: Rattus norvegicus; test: In vivo inhibitory activity against LTB4 biosynthesis by rat pleurisy model (2h pre treatment time period); assay type: functional
[13] = test system: Canis familiaris; test: Inhibition of ex vivo leukotriene B4 (LTB4) in whole blood of A-23,187-challenged dog after intravenous infusion of 2.5 ug/kg/min; assay type: functional; details: Canis lupus familiaris

SMILES: CC(C)(C)Sc1c(CC(C)(C)C(=O)O)n(Cc2ccc(Cl)cc2)c2ccc(OCc3ccc4c(n3)CCCC4)cc12
pIC50 [1]: 8.10 | pIC50 ([2]; Homo sapiens): 8.52 | pIC50 ([3]; Homo sapiens, Blood): 5.54

SMILES: Cc1nc2ccc(COc3ccc4c(c3)c(SC(C)(C)C)c(CC(C)(C)C(=O)O)n4Cc3ccc(Cl)cc3)cc2s1
pIC50 [1]: 7.40 | pIC50 ([2]; Homo sapiens): 8.22 | pIC50 ([3]; Homo sapiens, Blood): < 5.52

SMILES: CC(C)(C)Sc1c(CC(C)(C)C(=O)O)n(Cc2ccc(Cl)cc2)c2ccc(OCc3nc4ccccc4o3)cc12
pIC50 [1]: 8.30 | pIC50 ([2]; Homo sapiens): > 8.15 | pIC50 ([3]; Homo sapiens, Blood): 5.60

SMILES: CC(C)(C)Sc1c(CC(C)(C)C(=O)O)n(Cc2ccc(Cl)cc2)c2ccc(OCc3cnccn3)cc12
pIC50 [1]: 8.15 | pIC50 ([2]; Homo sapiens): 8.40 | pIC50 ([3]; Homo sapiens, Blood): 6.40

SMILES: CC(C)(C)Sc1c(CC(C)(C)C(=O)O)n(Cc2ccc(Cl)cc2)c2ccc(OCc3ccc4cc(F)c(F)cc4n3)cc12
pIC50 [1]: 7.85 | pIC50 ([2]; Homo sapiens): 8.15 | pIC50 ([3]; Homo sapiens, Blood): < 5.52

SMILES: CC(C)c1csc(COc2ccc3c(c2)c(SC(C)(C)C)c(CC(C)(C)C(=O)O)n3Cc2ccc(Cl)cc2)n1
pIC50 [1]: 7.89 | pIC50 ([2]; Homo sapiens): 8.52 | pIC50 ([3]; Homo sapiens, Blood): < 5.52

SMILES: CC(C)(C)Sc1c(CC(C)(C)C(=O)O)n(Cc2ccc(Cl)cc2)c2ccc(OCc3cccs3)cc12
pIC50 [1]: 7.15 | pIC50 ([2]; Homo sapiens): 8.40 | pIC50 ([3]; Homo sapiens, Blood): < 5.52

SMILES: CC(COc1ccc2c(c1)c(SC(C)(C)C)c(CC(C)(C)C(=O)O)n2Cc1ccc(Cl)cc1)c1ccccn1 (stereo not given)
pIC50 [1]: 8.10 | pIC50 ([2]; Homo sapiens): 8.40 | pIC50 ([3]; Homo sapiens, Blood): 6.57

SMILES: Cc1nc(COc2ccc3c(c2)c(SC(C)(C)C)c(CC(C)(C)C(=O)O)n3Cc2ccc(Cl)cc2)cs1
Functional activity in dyspnea model [4]: 48% | ED50 [5]: 0.15 mg/kg | pIC50 [1]: 8.52 | pIC50 ([2]; Homo sapiens): 8.70 | pIC50 ([3]; Homo sapiens, Blood): 6.89 | bioavailability [6]: 98% | concentration at 2 h [7]: 8 µM

Second part, led by results:

pIC50 [1]: 7.96 | pIC50 ([2]; Homo sapiens): 7.92 | pIC50 ([3]; Homo sapiens, Blood): < 5.52
SMILES: CC(C)(C)Sc1c(CC(C)(C)C(=O)O)n(Cc2ccc(Cl)cc2)c2ccc(/C=C/c3ccc4ccccc4n3)cc12

pIC50 [1]: 7.21
SMILES: CC(C)(C)Sc1c(CC(C)(C)C(=O)O)n(Cc2ccc(Cl)cc2)c2ccc(OCc3ccnc4ccccc34)cc12

pIC50 [1]: 8.70 | pIC50 ([2]; Homo sapiens): 8.22 | pIC50 ([3]; Homo sapiens, Blood): < 5.52
SMILES: CC(C)(C)Sc1c(CC(C)(C)C(=O)O)n(Cc2ccc(Cl)cc2)c2ccc(OCc3ccc4cccnc4n3)cc12

pIC50 [1]: 6.46 | pIC50 ([2]; Homo sapiens): < 7.28 | pIC50 ([3]; Homo sapiens, Blood): < 5.52
SMILES: CCCC(Oc1ccc2c(c1)c(SC(C)(C)C)c(CC(C)(C)C(=O)O)n2Cc1ccc(Cl)cc1)c1ccc2ccccc2n1 (stereo not given)

pIC50 [1]: 7.80 | pIC50 ([2]; Homo sapiens): 8.40 | pIC50 ([3]; Homo sapiens, Blood): < 5.52
SMILES: CC(C)(C)Sc1c(CC(C)(C)C(=O)O)n(Cc2ccc(Cl)cc2)c2ccc(CCc3ccc4ccccc4n3)cc12

pIC50 [1]: 7.80 | pIC50 [2]: 8.05 | pIC50 [3]: 6.10
SMILES: CC(Oc1ccc2c(c1)c(SC(C)(C)C)c(CC(C)(C)C(=O)O)n2Cc1ccc(Cl)cc1)c1ccc2ccccc2n1 (racemic)

pIC50 [1]: 8.15 | pIC50 [2]: 8.30 | pIC50 [3]: 6.44 | bioavailability [6]: 48% | concentration at 2 h [7]: 4.2 µM
SMILES: CC(Oc1ccc2c(c1)c(SC(C)(C)C)c(CC(C)(C)C(=O)O)n2Cc1ccc(Cl)cc1)c1ccc2ccccc2n1 (single isomer, unassigned; (-))
Functional activity in dyspnea model [4]: 45% | ED50 [8]: 1 mg/kg

pIC50 [1]: 6.94 | pIC50 [2]: 7.49 | pIC50 [3]: < 5.52
SMILES: CC(Oc1ccc2c(c1)c(SC(C)(C)C)c(CC(C)(C)C(=O)O)n2Cc1ccc(Cl)cc1)c1ccc2ccccc2n1 (stereo in doubt; 6)

pIC50 ([2]; Homo sapiens): 8.40 | bioavailability [6]: 24% | concentration at 2 h [10]: 2.5 µM
SMILES: CC(C)(C)Sc1c(CC(C)(C)C(=O)O)n(Cc2ccc(Cl)cc2)c2ccc(OCc3ccc4ccccc4n3)cc12 [QUIFLAPON]
Functional activity in dyspnea model [4]: 51% | inhibition in vivo at 2.5 µg/kg/min [9]: 71% | ED50 [11]: 0.15 mg/kg | ED50 [12]: 0.51 mg/kg | inhibition in vivo at 2.5 µg/kg/min [13]: 94%
